Measurements as given in patent publication US8580762B2, “Substituted purine and 7-deazapurine compounds” (Epizyme, Inc., priority 2010, dated 2013).
Like-named read-outs stand apart in the source and are kept apart here.

Biological target: DOT1L(1-416) (Homo sapiens, UniProt Q8TEK3)
Assay: Determination of IC50: DOT1L(1-416) methyltransferase assay, 3H-SAM, oligonucleosome substrate, Flashplate
Assay type: biochemical
Conditions: read-out: DOT1L IC50
Outline: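 Compounds in 10-point 3-fold DMSO dilutions were tested in reactions started with substrate mix of 200 nM [3H]-SAM, 600 nM unlabeled SAM and 20 nM oligonucleosome. Reactions ran 120 min at room temperature and were quenched with 100 μM SAM. Labeled substrate was captured on streptavidin Flashplates and counted by scintillation to give IC50.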

Chain of DOT1L(1-416) (Q8TEK3 1-416): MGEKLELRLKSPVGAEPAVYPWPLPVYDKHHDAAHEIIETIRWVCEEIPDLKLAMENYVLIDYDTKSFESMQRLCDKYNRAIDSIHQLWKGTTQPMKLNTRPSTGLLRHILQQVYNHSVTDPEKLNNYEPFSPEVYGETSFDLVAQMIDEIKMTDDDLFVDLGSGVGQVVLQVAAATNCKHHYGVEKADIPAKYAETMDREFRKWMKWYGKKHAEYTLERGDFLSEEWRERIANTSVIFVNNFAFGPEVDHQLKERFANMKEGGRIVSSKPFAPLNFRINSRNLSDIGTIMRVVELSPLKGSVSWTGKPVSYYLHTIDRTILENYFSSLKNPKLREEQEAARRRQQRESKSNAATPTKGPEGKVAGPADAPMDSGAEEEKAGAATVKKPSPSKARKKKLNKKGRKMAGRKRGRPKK

Row | IC50 (class symbols) | Compound | IC50
1 | < 100 nM | CN(C[C@H]1C[C@@H](n2ccc3c(N)ncnc32)[C@H](O)[C@@H]1O)[C@H]1C[C@H](CCc2nc3cc(C4(C)CCC4)ccc3[nH]2)C1 [Compound 39] | –
2 | 100 to 1000 nM | CN(C[C@H]1O[C@@H](n2cnc3c(N)ncnc32)[C@H](O)[C@@H]1O)C1CC(CCc2nc3cc(C4COC4)ccc3[nH]2)C1 (stereo partly drawn) [Compound 64, (2R,3R,4S,5R)-2-(6-amino-9H-purin-9-yl)-5-((methyl(3-(2-(5-(oxetan-3-yl)-1H-benzo[d]imidazol-2-yl)ethyl)cyclobutyl)amino)methyl)tetrahydrofuran-3,4-diol] | –
3 | < 100 nM | CC(C)N(C[C@H]1C[C@@H](n2ccc3c(N)ncnc32)[C@H](O)[C@@H]1O)[C@H]1C[C@@H](CCc2nc3cc(C(C)(C)C)ccc3[nH]2)C1 [Compound 41, (1R,2S,3R,5R)-3-(4-amino-7H-pyrrolo[2,3-d]pyrimidin-7-yl)-5-((((1r,3S)-3-(2-(5-(tert-butyl)-1H-benzo[d]imidazol-2-yl)ethyl)cyclobutyl)(isopropyl)amino)methyl)cyclopentane-1,2-diol] | –
4 | < 100 nM | CN(C[C@H]1O[C@@H](n2cnc3c(N)ncnc32)[C@H](O)[C@@H]1O)C1CC(CCc2nc3cc(C4(C)CCC4)ccc3[nH]2)C1 (stereo partly drawn) [Compound 33, (2R,3R,4S,5R)-2-(6-amino-9H-purin-9-yl)-5-((methyl(3-(2-(5-(1-methylcyclobutyl)-1H-benzo[d]imidazol-2-yl)ethyl)cyclobutyl)amino)methyl)tetrahydrofuran-3,4-diol] | –
5 | < 100 nM | CC(C)N(C[C@H]1O[C@@H](n2cnc3c(N)ncnc32)[C@H](O)[C@@H]1O)[C@H]1C[C@@H](CCc2nc3cc(C4(C)CCC4)ccc3[nH]2)C1 [Compound 28, (2R,3R,4S,5R)-2-(6-amino-9H-purin-9-yl)-5-((isopropyl((1r,3S)-3-(2-(5-(1-methylcyclobutyl)-1H-benzo[d]imidazol-2-yl)ethyl)cyclobutyl)amino)methyl)tetrahydrofuran-3,4-diol] | –
6 | < 100 nM | CN(C[C@H]1O[C@@H](n2cnc3c(N)ncnc32)[C@H](O)[C@@H]1O)[C@H]1C[C@@H](CCc2nc3cc(C4(C#N)CC4)ccc3[nH]2)C1 [Compound 137, 1-(2-(2-((1S,3r)-3-((((2R,3S,4R,5R)-5-(6-amino-9H-purin-9-yl)-3,4-dihydroxytetrahydro-furan-2-yl)methyl)(methyl)amino)cyclobutyl)ethyl)-1H-benzo[d]imidazol-5-yl)cyclo-propanecarbonitrile] | –
7 | < 100 nM | CC(C)N(C[C@H]1O[C@@H](n2cnc3c(N)ncnc32)[C@H](O)[C@@H]1O)[C@H]1C[C@H](CCc2nc3cc(Cl)c(C(F)(F)F)cc3[nH]2)C1 [Compound 4, (2R,3R,4S,5R)-2-(6-amino-9H-purin-9-yl)-5-((((1s,3R)-3-(2-(5-chloro-6-(trifluoromethyl)-1H-benzo[d]imidazol-2-yl)ethyl)cyclobutyl)(isopropyl)amino)methyl)tetrahydrofuran-3,4-diol] | –
8 | < 100 nM | CN(C[C@H]1O[C@@H](n2cnc3c(N)ncnc32)[C@H](O)[C@@H]1O)[C@H]1C[C@@H](CCc2nc3cc(C4(C)CCC4)ccc3[nH]2)C1 [Compound 30, (2R,3R,4S,5R)-2-(6-amino-9H-purin-9-yl)-5-((methyl((1r,3S)-3-(2-(5-(1-methylcyclobutyl)-1H-benzo[d]imidazol-2-yl)ethyl)cyclobutyl)amino)methyl)tetrahydrofuran-3,4-diol] | –
9 | < 100 nM | CC(C)N(C[C@H]1O[C@@H](n2cnc3c(N)ncnc32)[C@H](O)[C@@H]1O)[C@H]1C[C@@H](CCc2nc3cc(C4(C#N)CC4)ccc3[nH]2)C1 [Compound 135, 1-(2-(2-((1S,3r)-3-((((2R,3S,4R,5R)-5-(6-amino-9H-purin-9-yl)-3,4-dihydroxytetrahydro-furan-2-yl)methyl)(isopropyl)amino)cyclobutyl)ethyl)-1H-benzo[d]imidazol-5-yl)cyclo-propanecarbonitrile] | –
10 | < 100 nM | CN(C[C@H]1C[C@@H](n2ccc3c(N)ncnc32)[C@H](O)[C@@H]1O)[C@H]1C[C@@H](CCc2nc3cc(C4(C)CCC4)ccc3[nH]2)C1 [Compound 36, (1R,2S,3R,5R)-3-(4-amino-7H-pyrrolo[2,3-d]pyrimidin-7-yl)-5-((methyl((1r,3S)-3-(2-(5-(1-methylcyclobutyl)-1H-benzo[d]imidazol-2-yl)ethyl)cyclobutyl)amino)methyl)cyclopentane-1,2-diol] | –

The remaining lines, values behind:

Row | Compound | IC50 (class symbols) | IC50
11 | CC(C)(C)c1ccc2[nH]c(CC[C@H]3C[C@@H](N(C[C@H]4O[C@@H](n5cnc6c(N)ncnc65)[C@H](O)[C@@H]4O)CC(F)(F)F)C3)nc2c1 [Compound 102, (2R,3R,4S,5R)-2-(6-amino-9H-purin-9-yl)-5-((((1r,3S)-3-(2-(5-(tert-butyl)-1H-benzo[d]imidazol-2-yl)ethyl)cyclobutyl) (2,2,2-trifluoroethyl)amino)methyl)tetrahydrofuran-3,4-diol] | 100 to 1000 nM | –
12 | CN(C[C@H]1O[C@@H](n2ccc3c(N)ncnc32)[C@H](O)[C@@H]1O)[C@H]1C[C@@H](CCc2nc3cc(C(C)(C)C)ccc3[nH]2)C1 [Compound 86, (2R,3R,4S,5R)-2-(4-amino-7H-pyrrolo[2,3-d]pyrimidin-7-yl)-5-((((1r,3S)-3-(2-(5-(tert-butyl)-1H-benzo[d]imidazol-2-yl)ethyl)cyclobutyl) (methyl)amino)methyl) tetrahydrofuran-3,4-diol] | < 100 nM | 0.62 nM
13 | CN(C[C@H]1O[C@@H](n2ccc3c(N)ncnc32)[C@H](O)[C@@H]1O)[C@H]1C[C@H](CCc2nc3cc(OC(F)(F)F)ccc3[nH]2)C1 [Compound 95, (2R,3R,4S,5R)-2-(4-amino-7H-pyrrolo[2,3-d]pyrimidin-7-yl)-5-((methyl((1s,3R)-3-(2-(5-(trifluoromethoxy)-1H-benzo[d]imidazol-2-yl)ethyl)eyclobutyl)amino)methyl) tetrahydrofuran-3,4-diol] | < 100 nM | –
14 | CN(C[C@H]1C[C@@H](n2ccc3c(N)ncnc32)[C@H](O)[C@@H]1O)[C@H]1C[C@@H](CCc2nc3cc(OC(F)(F)F)ccc3[nH]2)C1 [Compound 37, (1R,2S,3R,5R)-3-(4-amino-7,1-pyrrolo[2,3-d]pyrimidin-7-yl)-5-((methyl((1r,3S)-3-(2-(5-(trifluoromethoxy)-1H-benzo[d]imidazol-2-yl)ethyl)cyclobutyl)amino)methyl)cyclopentane-1,2-diol] | < 100 nM | –
15 | CC(C)N(CC1CC(Cc2nc3cc(C(C)(C)C)ccc3[nH]2)C1)C[C@H]1C[C@@H](n2ccc3c(N)ncnc32)[C@H](O)[C@@H]1O (stereo partly drawn) [Compound 22, (1R,2S,3R,5R)-3-{4-amino-7H-pyrrolo[2,3-d]pyrimidin-7-yl}-5-{[({3-[(5-tert-butyl-1H-1,3-benzodiazol-2-yl)methyl]cyclobutyl}methyl)(propan-2-yl)amino]methyl}cyclopentane-1,2-diol] | 100 to 1000 nM | –
16 | CC(C)N(C[C@H]1O[C@@H](n2cnc3c(N)ncnc32)[C@H](O)[C@@H]1O)[C@H]1C[C@H](CCc2nc3cc(CC(F)(F)F)ccc3[nH]2)C1 [Compound 123, (2R,3R,4S,5R)-2-(6-amino-9H-purin-9-yl)-5-((isopropyl((1s,3R)-3-(2-(5-(2,2,2-trifluoroethyl)-1H-benzo[d]imidazol-2-yl)ethyl)cyclobutyl)amino)methyl) tetrahydrofuran-3,4-diol] | < 100 nM | –
17 | CC(C)N(C[C@H]1O[C@@H](n2cnc3c(N)ncnc32)[C@H](O)[C@@H]1O)[C@H]1C[C@H](CCc2nc3cc(C4(C)CCC4)ccc3[nH]2)C1 [Compound 31, (2R,3R,4S,5R)-2-(6-amino-9H-purin-9-yl)-5-((isopropyl((1s,3R)-3-(2-(5-(1-methylcyclobutyl)-1H-benzo[d]imidazol-2-yl)ethyl)cyclobutyl)amino)methyl)tetrahydrofuran-3,4-diol] | < 100 nM | –
18 | CC(C)(C)c1ccc2[nH]c(CC[C@H]3C[C@H](N(C[C@H]4O[C@@H](n5ccc6c(N)ncnc65)[C@H](O)[C@@H]4O)CC(F)(F)F)C3)nc2c1 [Compound 77, (2R,3R,4S,5R)-2-(4-amino-7H-pyrrolo[2,3-d]pyrimidin-7-yl)-5-((((1s,3R)-3-(2-(5-(tert-butyl)-1H-benzo[d]imidazol-2-yl)ethyl)cyclobutyl)(2,2,2-trifluoroethyl)amino)methyl)tetrahydrofuran-3,4-diol] | 100 to 1000 nM | –
19 | CC(C)(C)c1ccc2[nH]c(CCC3CC(N(C[C@H]4C[C@@H](n5ccc6c(N)ncnc65)[C@H](O)[C@@H]4O)C4CCC4)C3)nc2c1 (stereo partly drawn) [Compound 43, (1R,2S,3R,5R)-3-(4-amino-7H-pyrrolo[2,3-d]pyrimidin-7-yl)-5-(((3-(2-(5-(tert-butyl)-1H-benzo[d]imidazol-2-yl)ethyl)cyclobutyl)(cyclobutyl)amino)methyl)cyclopentane-1,2-diol] | < 100 nM | –
20 | CN(C[C@H]1O[C@@H](n2ccc3c(N)ncnc32)[C@H](O)[C@@H]1O)[C@H]1C[C@@H](CCc2nc3cc(OC(F)(F)F)ccc3[nH]2)C1 [Compound 94, (2R,3R,4S,5R)-2-(4-amino-7H-pyrrolo[2,3-d]pyrimidin-7-yl)-5-((methyl((1r,3S)-3-(2-(5-(trifluoromethoxy)-1H-benzo[d]imidazol-2-yl)ethyl)cyclobutyl)amino)methyl) tetrahydrofuran-3,4-diol] | < 100 nM | –
21 | CN(C[C@H]1O[C@@H](n2cnc3c(N)ncnc32)[C@H](O)[C@@H]1O)[C@H]1C[C@H](CCc2nc3cc(C4CCC4)ccc3[nH]2)C1 [Compound 132, (2R,3R,4S,5R)-2-(6-amino-9H-purin-9-yl)-5-((((1s,3R)-3-(2-(5-cyclobutyl-1H-benzo[d]imidazol-2-yl)ethyl)cyclobutyl) (methyl)amino)methyl) tetrahydrofuran-3,4-diol] | < 100 nM | –
